Test results reported in patent US20210018841A1, “COMPOSITION FOR RESIST UNDERLAYER FILM FORMATION AND PATTERN FORMATION METHOD” (Mitsubishi Gas Chemical Company, Inc., priority 2018, published 2021).

Test: Solubility in a safe solvent (PGMEA)
Assay type: physicochemical
Details: ultrasonic waves at 23° C. for 30 minutes, visually observed
Procedure: The solubility of an obtained compound in a safe solvent (propylene glycol monomethyl ether acetate (PGMEA)) was evaluated as follows. The compound was precisely weighed in a test tube, and PGMEA was added to a predetermined concentration. Next, ultrasonic waves were applied at 23° C. for 30 minutes with an ultrasonic cleaning machine, and the subsequent state of the liquid was visually observed. The concentration (% by mass) at which the compound was completely dissolved was defined as the amount of dissolution. […] B: amount of dissolution was 3.0% by mass or more and 5.0% by mass or less. C: amount of dissolution was less than 3.0% by mass.

SMILES: CCO[Te](OCC)(OCC)OCC [TOX-1, tetraethoxytellurium(IV)]
- Solubility of tellurium containing compound: A (amount of dissolution was 5.0% by mass or more)
